The nature of data set [1]: Cell culture cytotoxicity, L cells. It counts as cell-based. As to conditions: mouse, L fibroblast cell line, read-out: Tumor Cell Culture Cytotoxicity IC50 Other (L).
Description: (§1) Cells are seeded into 96-well plates using a Perkin-Elmer Pro/pette. SW480 and A427 were seeded at 8,000 cells per well, MCF-7 at 10,000, Widr at 7500, and MOLT-4 at 12,500 cells per well, all in 150 µl of medium. Prior to the addition of drugs, cultures were incubated for 24 hrs at 37°. Compounds were added at 2×concentration in 150 l of medium and each concentration was assayed in triplicate. If DMSO or ethanol were used to solubilize compounds, appropriate controls were run if the concentration exceeded 0.01%. Cultures were incubated for 72 hours (96 hours for SW480 and MCF-7) in a 37° humidified incubator at 5% CO2. Inhibition of cell growth was measured using the MTT dye reduction assay.
(§2) Cell dilutions for a standard curve were prepared from a 72 hour log-phase culture. Serial dilutions were seeded in triplicate in 96-well plates and incubated at 37 degrees for one hour. MTT (3-(4,5-dimethylthiazol-2-yl)-2,5-diphenyltetrazolium bromide) was dissolved in PBS at 5 mg/ml and sonicated for 30 seconds. Using the Perkin Elmer Pro/pette, 200 μl of medium was removed and 100 μl of MTT added to the wells of the standard curve and test plates. Suspension cultures were spun for 5 min at 1000 rpm before removing medium from the wells. Plates were incubated for 1 hour at 370 on a platform shaker. Following this incubation 100 ml of medium was removed from the wells and 100 μl of DMSO added to each well. The plates were sonicated for approximately 10 seconds to solubilize the precipitated formazan dye. The absorbance of each well was measured using a Titertek Multiscan MC microtiter plate reader at 570 nm with a reference wavelength of 750 nm. Data was collected using a Mariachi Seed-2 and stored and analyzed using an IBM-AT and Lotus 1-2-3 software.
Data set [2] in a line: Cell culture cytotoxicity, D98. To be noted: human, D98 bone marrow cell line, read-out: Tumor Cell Culture Cytotoxicity IC50 Other (D98). Type of data set: cell-based.
Description: as §1, §2
Data set [3] has as its target T1, Mammalian Thymidylate Synthase (Homo sapiens, UniProt P04818).
T1 construct: made in house; host or cells: Escherichia coli
The data set can be described thus: Thymidylate synthase inhibition, tritium release assay. It counts as biochemical.

The test system of data set [4] is SW480 human colon adenocarcinoma. As to the kind of experiment: Tumor cell culture cytotoxicity (MTT dye reduction), SW480. To be noted: Homo sapiens. Background: Formazan colour is commonly taken as a measure of viable cells.
Description: SW480 and WiDr colon adenocarcinomas, MCF-7 breast adenocarcinoma, A427 lung carcinoma and MOLT-4 T-cell leukemia were used for the primary screening of compounds. […] MCF-7, A427 and SW480 were grown in the above medium further supplemented with sodium pyruvate.
as §1, §2
Setting [5] is: Table C, 5,6-dihydro 3-amino derivatives.
The mark [6] stands for this setting: Table B, fully aromatic 3-amino derivatives.
The mark [7] stands for this setting: SW480, read-out: Tumor Cell Culture Cytotoxicity IC50 SW480, Table B, fully aromatic 3-amino derivatives.
The mark [8] stands for this setting: Table D, 5,6-dihydro 3-methyl derivatives.
The mark [9] stands for this setting: SW480, read-out: Tumor Cell Culture Cytotoxicity IC50 SW480, Table D, 5,6-dihydro 3-methyl derivatives.
Where [10] appears, read: Table E, fully aromatic 3-methyl derivatives.
[11] abbreviates: SW480, read-out: Tumor Cell Culture Cytotoxicity IC50 SW480, Table E, fully aromatic 3-methyl derivatives.

Where two headings read alike, the source gives them in different places.

Drawing on patent publication US6762188B1, “Pharmaceutically active benzoquinazoline compounds” (SmithKline Beecham Corporation, priority 1990, dated 2004), this text covers IC50 and melting point for 35 compounds.

Broadly, the IC50 is the midpoint of a concentration-inhibition curve. As usually defined, the melting point is the temperature of the solid-liquid transition.

T1 sequence (P04818 whole entry): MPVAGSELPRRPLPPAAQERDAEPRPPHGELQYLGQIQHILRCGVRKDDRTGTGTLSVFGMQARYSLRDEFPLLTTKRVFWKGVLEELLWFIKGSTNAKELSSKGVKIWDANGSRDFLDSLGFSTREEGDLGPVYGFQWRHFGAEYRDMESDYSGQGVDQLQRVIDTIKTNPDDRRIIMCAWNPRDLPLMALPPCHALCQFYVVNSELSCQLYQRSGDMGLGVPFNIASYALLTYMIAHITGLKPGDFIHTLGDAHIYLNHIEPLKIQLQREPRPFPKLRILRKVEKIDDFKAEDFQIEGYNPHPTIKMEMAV

As for `CCSc1ccc2c(c1)-c1c(nc(N)[nH]c1=O)CC2` [3-Amino-9-(ethylthio)-5,6-dihydrobenzo(f)quinazolin-1(2H)-one], the IC50 at 72 h stood at 33 µM in data set [1] (setting [5]) and 54 µM in data set [2] (setting [5]).

The compound `Nc1nc2ccc3ccc(CNc4ccc(F)cc4)cc3c2c(=O)[nH]1` [Example 38, 3-Amino-9-((4-fluoroanilino)methyl)benzo[f]quinazolin-1(2H)-one] yielded a melting point above 230 °C.

In the case of `Nc1nc2ccc3c([N+](=O)[O-])c(F)ccc3c2c(=O)[nH]1` [3-Amino-8-fluoro-7-nitrobenzo(f)quinazolin-1(2H)-one], the concentration for half-maximal inhibition (IC50) was 1 to 300 µM in data set [3] and 30 µM in data set [4] (setting [7]). Also, the IC50 at 72 h in data set [1] (setting [6]) was 14 µM; in data set [2] (setting [6]), 20 µM.

On to `Nc1nc2ccc3cc(F)cc([N+](=O)[O-])c3c2c(=O)[nH]1` [3-Amino-8-fluoro-10-nitrobenzo(f)quinazolin-1(2H)-one], for which the IC50 is 1 to 300 µM in data set [3] and 50 µM in data set [4] (setting [7]).

As to `Nc1nc2ccc3c(F)cccc3c2c(=O)[nH]1` [3-Amino-7-fluorobenzo(f)quinazolin-1(2H)-one], the figures for the IC50 in data set [3] and in data set [4] (setting [7]) were 1 to 300 µM and 30 µM, respectively.

In the case of `Nc1nc2ccc3ccc(Br)c(N)c3c2c(=O)[nH]1` [3,10-Diamino-9-bromobenzo(f)quinazolin-1(2H)-one], the 50% inhibitory concentration (IC50) in data set [3] was below 1 µM; in data set [4] (setting [7]), 30 µM.

As for `Cc1nc2c(c(=O)[nH]1)-c1ccc([N+](=O)[O-])cc1CC2` [Example 8-NO2, 5,6-dihydro-3-methyl-8-nitrobenzo[f]quinazolin-1(2H)-one], the half-inhibitory concentration (IC50) at 72 h in data set [1] (setting [8]) and in data set [2] (setting [8]) was 52 µM in each case. In data set [4] (setting [9]), the 50% inhibitory concentration (IC50) was 100 µM.

For `Nc1nc2ccc3c(N)c(Br)ccc3c2c(=O)[nH]1` [3,7-Diamino-8-bromobenzo(f)quinazolin-1(2H)-one], the half-inhibitory concentration (IC50) in data set [3] was 1 to 300 µM; in data set [4] (setting [7]) it was 20 µM.

As for `CSc1ccc2c(c1)-c1c(nc(N)[nH]c1=O)CC2` [3-Amino-5,6-dihydro-9-(methylthio)benzo(f)quinazolin-1(2H)-one], in data set [1] (setting [5]), the IC50 at 72 h was 46 µM.

As to `Nc1nc2ccc3c(Br)cccc3c2c(=O)[nH]1` [3-Amino-7-bromobenzo(f)quinazolin-1(2H)-one], the IC50 in data set [3] was 1 to 300 µM; in data set [4] (setting [7]), 10 µM. Further, the results for the half-maximal inhibitory concentration (IC50) at 72 h in data set [1] (setting [6]) and in data set [2] (setting [6]) were 28 µM and 56 µM, respectively.

`CC(=O)c1ccc(NS(=O)(=O)c2ccc3c(c2)-c2c(nc(C)[nH]c2=O)CC3)cc1` [4′-Acetyl-1,2,5,6-tetrahydro-3-methyl-1-oxobenzo(f)quinazoline-9-sulfonanilide] gave a melting point above 240 °C. Also, in data set [4] (setting [9]), the 50% inhibitory concentration (IC50) stood at 8 µM.

Take `Cc1nc2ccc3ccc(CNc4ccc(C(=O)CCC(=O)O)cc4)cc3c2c(=O)[nH]1` [4-(4-(((1,2-Dihydro-3-methyl-1-oxobenzo[f]quinazolin-9-yl)methyl)amino)phenyl)-4-oxobutyric acid]: the IC50 at 72 h in data set [1] (setting [10]) stood at 8.8 µM; in data set [2] (setting [10]), 13.5 µM. Moreover, the concentration for half-maximal inhibition (IC50) in data set [4] (setting [11]) amounted to 0.7 µM.

In turn, `Cc1nc2c(c(=O)[nH]1)-c1cc(S(N)(=O)=O)ccc1CC2` [1,2,5,6-Tetrahydro-3-methyl-1-oxobenzo(f)quinazoline-9-sulfonamide] gave a melting point above 240 °C. This compound yielded a 50% inhibitory concentration (IC50) in data set [3] of 1 to 300 µM.

`Cc1cccc2c1ccc1nc(N)[nH]c(=O)c12` [3-Amino-7-methylbenzo(f)quinazolin-1(2H)-one]: the IC50 in data set [3] was 1 to 300 µM; in data set [4] (setting [7]) it was 35 µM. Also, the 50% inhibitory concentration (IC50) at 72 h in data set [1] (setting [6]) worked out at 32 µM; in data set [2] (setting [6]), 53 µM.

As for `CCc1ccc2ccc3nc(N)[nH]c(=O)c3c2c1` [3-Amino-9-ethylbenzo(f)quinazolin-1(2H)-one], the IC50 is below 1 µM in data set [3] and 20 µM in data set [4] (setting [7]).

In turn, `CCCCCCCCCCCCOC(=O)CCC(=O)c1ccc(NCc2ccc3ccc4nc(C)[nH]c(=O)c4c3c2)cc1` [Dodecyl 4-(4-(((1,2-dihydro-3-methyl-1-oxobenzo[f]quinazolin-9-yl)methyl)amino)phenyl)-4-oxobutyrate] displayed a melting point of 213 to 214 °C. In addition, the 50% inhibitory concentration (IC50) in data set [4] (setting [11]) came out at 0.4 µM.

Regarding `Cc1ccc2ccc3nc(N)nc(O)c3c2c1` [3-Amino-9-methylbenzo(f)quinazolin-1(2H)-one], the IC50 was below 1 µM in data set [3] and 30 µM in data set [4] (setting [7]). The IC50 at 72 h in data set [1] (setting [6]) worked out at 8 µM.

Take `COCc1cc2nc(N)nc(O)c2c2ccccc12` [3-Amino-6-(methoxymethyl)benzo(f)quinazolin-1(2H)-one]: the half-inhibitory concentration (IC50) was 1 to 300 µM in data set [3] and 60 µM in data set [4] (setting [7]). Also, the results for the IC50 at 72 h in data set [1] (setting [6]) and in data set [2] (setting [6]) were 56 µM and 74 µM, respectively.

For the compound `Nc1nc2c3ccccc3c3ccccc3c2c(=O)[nH]1` [2-Aminodibenzo(f,h)quinazolin-4(3H)-one], the half-inhibitory concentration (IC50) in data set [3] is 1 to 300 µM; in data set [4] (setting [7]) it was 4 µM.

As to `Nc1ccc2c(ccc3nc(N)nc(O)c32)c1` [3,8-Diaminobenzo(f)quinazolin-1(2H)-one], the half-maximal inhibitory concentration (IC50) is 1 to 300 µM in data set [3] and 100 µM in data set [4] (setting [7]). In addition, the IC50 at 72 h in data set [1] (setting [6]) stood at 40 µM; in data set [2] (setting [6]), 53 µM.

As for `Cc1nc2ccc3ccc(CNc4ccc5c(c4)CCC5=O)cc3c2c(=O)[nH]1` [3-Methyl-9-(((1-oxo-5-indanyl)amino)methyl)benzo)[f]quinazolin-1(2H)-one], the values for the half-inhibitory concentration (IC50) at 72 h in data set [1] (setting [10]) and in data set [2] (setting [10]) were 0.058 µM and 0.25 µM, respectively. Also, the half-maximal inhibitory concentration (IC50) in data set [4] (setting [11]) was determined as 0.015 µM.

The compound `Cc1nc2c(c(=O)[nH]1)-c1cc(S(=O)(=O)Nc3ccc(C(N)=O)cc3)ccc1CC2` [4-((1,2,5,6-Tetrahydro-3-methyl-1-oxobenzo(f)quinazolin-9-yl)sulfonamido)benzamide] showed a melting point of 190 °C. Further, in data set [4] (setting [9]), the half-maximal inhibitory concentration (IC50) came to 80 µM.

Take `Nc1nc2ccc3c(Cl)cccc3c2c(=O)[nH]1` [3-Amino-7-chlorobenzo(f)quinazolin-1(2H)-one]: the IC50 in data set [3] was 1 to 300 µM; in data set [4] (setting [7]), 25 µM. The figures for the IC50 at 72 h in data set [1] (setting [6]) and in data set [2] (setting [6]) were 46 µM and 60 µM, respectively.

For the compound `Nc1nc2ccc3c(I)cccc3c2c(=O)[nH]1` [3-Amino-7-iodobenzo(f)quinazolin-1(2H)-one], the IC50 in data set [3] was 1 to 300 µM; in data set [4] (setting [7]), 10 µM.

Regarding `Cc1nc(O)c2c(ccc3ccc(F)cc32)n1` [9-Fluoro-3-methylbenzo(f)quinazolin-1(2H)-one], the concentration for half-maximal inhibition (IC50) at 72 h in data set [1] (setting [10]) turned out to be 50 µM; in data set [2] (setting [10]) it was 72 µM.

Regarding `Nc1nc2ccc3cc(F)cc(N)c3c2c(=O)[nH]1` [3,10-Diamino-8-fluorobenzo(f)quinazolin-1(2H)-one], the IC50 in data set [3] is 1 to 300 µM; in data set [4] (setting [7]) it was 70 µM.

The compound `CCN(CC)S(=O)(=O)c1ccc2ccc3nc(N)[nH]c(=O)c3c2c1` [Example 9-SO2NEt2, 3-Amino-N,N-diethyl-1,2-dihydro-1-oxobenzo[f]quinazoline-9-sulfonamide] gave a melting point above 250 °C. Also, the 50% inhibitory concentration (IC50) in data set [4] (setting [7]) came out at 15 µM. For the same compound, the concentration for half-maximal inhibition (IC50) in data set [4] (SW480, read-out: Tumor Cell Culture Cytotoxicity IC50 SW480, Table C, 5,6-dihydro 3-amino derivatives) was found to be 30 µM.

Regarding `Cc1nc2ccc3ccc(Cl)cc3c2c(=O)[nH]1` [9-Chloro-3-methylbenzo(f)quinazolin-1(2H)-one], the concentration for half-maximal inhibition (IC50) at 72 h in data set [1] (setting [10]) is 80 µM; in data set [2] (setting [10]) it was 82 µM.

The compound `CC(=O)c1ccc(NCc2ccc3ccc4nc(C)[nH]c(=O)c4c3c2)cc1` [Example 35, 9-((4-Acetylanilino)methyl)-3-methylbenzo[f]quinazolin-1(2H)-one] yielded a melting point above 235 °C.

For the compound `Cc1nc2ccc3c(Cl)cccc3c2c(=O)[nH]1` [7-Chloro-3-methylbenzo(f)quinazolin-1(2H)-one], in data set [1] (setting [10]), the IC50 at 72 h was determined as 84 µM.

On to `CCN(CC)S(=O)(=O)c1cc2c(ccc3nc(N)[nH]c(=O)c32)cc1Br` [3-Amino-8-bromo-N,N-diethyl-1,2-dihydro-1-oxobenzo(f)quinazoline-9-sulfonamide], for which the 50% inhibitory concentration (IC50) in data set [3] is 1 to 300 µM; in data set [4] (setting [7]), 2.5 µM.

Regarding `Cc1nc2c(c(=O)[nH]1)-c1cc(S(=O)(=O)Nc3ccc([N+](=O)[O-])cc3)ccc1CC2` [1,2,5,6-Tetrahydro-3-methyl-4′-nitro-1-oxobenzo(f)quinazoline-9-sulfonanilide], the melting point was above 240 °C. Besides, the half-inhibitory concentration (IC50) in data set [4] (setting [9]) was found to be 30 µM.

`CCN(CC)S(=O)(=O)c1ccc2c(c1)-c1c(nc(C)[nH]c1=O)CC2` [N,N-Diethyl-1,2,5,6-tetrahydro-3-methyl-1-oxobenzo(f)quinazoline-9-sulfonamide] came in with a melting point of 249 to 251 °C. The compound further showed an IC50 in data set [3] of 1 to 300 µM.

`Cc1nc(O)c2c(n1)CCc1ccc(I)cc1-2` [5,6-Dihydro-9-iodo-3-methylbenzo(f)quinazolin-1(2H)-one]: the concentration for half-maximal inhibition (IC50) at 72 h in data set [1] (setting [8]) was determined as 80 µM; in data set [2] (setting [8]), 70 µM.

Turning to `Nc1nc2ccc3ccc(O)cc3c2c(=O)[nH]1` [3-Amino-9-hydroxybenzo(f)quinazolin-1(2H)-one], the values for the IC50 in data set [3] and in data set [4] (setting [7]) were below 1 µM and 40 µM, respectively.
